Test results reported in PubChem BioAssay (NCI).
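Five concentrations, 48 hours, 96-well plates. GI50: concentration for 50% inhibition of growth. TGI marks complete inhibition of growth.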

What follows are molecules tested on DMS 114 small cell lung (assay: NCI tumour cell line growth inhibition, 48 h).
In the case of `CC1(C)OC(=O)C(=C2CCC(C(=O)Nc3cccc(C(F)(F)F)c3)N2)C(=O)O1` (stereo not drawn), the TGI is reported as > 100 µM.
For `CN(C)CCN1CCc2c([nH]c3ccccc23)C1c1cccnc1` (stereo not drawn), the TGI was > 100 µM.
`CCN(c1ccccc1)[C@H]1C(=O)N(c2ccc([N+](=O)[O-])cc2)[C@H]1c1ccc(OC)cc1` was tested, and the TGI was > 100 µM.
For `COc1ccc(/C=C\c2cc(OC)c(OC)c(OC)c2)cc1`, the TGI was > 100 µM.
With `C[C@H]1CC[P+](C)(c2ccccc2)C1` (stereo partly drawn) the TGI was > 100 µM.
`COc1cc(OC)c2c(=O)c3cccc([N+](=O)[O-])c3n(C)c2c1` was tested, and the TGI was > 100 µM.
Molecule `COc1cccc(/C=N\NC(=O)C(C)SC(C)C(=O)N/N=C/c2cccc(OC)c2)c1` (stereo not drawn) has a TGI of 41.6 µM.
For `Cc1cc(C)nc(NS(=O)(=O)c2ccc(Nc3c4ccccc4nc4c(C(=O)NCCN(C)C)cccc34)cc2)n1`, the TGI was 17.5 µM.
`COc1cc2c(c(OC)c1OC)C(=O)NCCC2` was tested, and the TGI was > 100 µM.
`Cc1nc2ccccc2c(=O)n1/N=C(\N=Nc1cc(Cl)ccc1Cl)c1ccccc1` gave a TGI of 82.4 µM.
For `O=C1CCC(=O)N1Sc1ccccc1`, the TGI was > 100 µM.
In the case of `O=c1[nH]cnc2n[nH]nc12`, the TGI is reported as 56.1 µM.
Work on `O=C(/C=C/c1ccccc1O)c1ccccc1Cl` yielded a TGI of 58 µM.
With `CCCCC1(C(NC(=O)c2ccccc2Cl)c2ccncc2)C(=O)N(c2ccccc2)N(c2ccccc2)C1=O` (stereo not drawn) the TGI was > 100 µM.
`COc1ccc(/C=N/NS(=O)(=O)c2ccccc2)cc1` was tested, and the TGI was > 100 µM.
In the case of `COc1ccccc1NC(=O)C1=C(C)NC(C)=C(C(=O)Nc2ccccc2OC)C1c1ccco1`, the TGI is reported as 7.53 µM.
In the case of `C1=CC2CCC1CN2CCC1CNc2ccccc21` (stereo not drawn), the TGI is reported as > 100 µM.
Molecule `Cc1ccc(OC(=O)N2C/C(=C\c3ccccc3)C(=O)/C(=C/c3ccccc3)C2)cc1` has a TGI of 59.4 µM.
With `O=C1C(=O)C2(CC1S(=O)(=O)c1ccccc1)c1ccccc1-c1ccccc12` (stereo not drawn) the TGI was 53.3 µM.
In the case of `O=c1oc2c3ccc4ccccc4c3n(CCN3CCCCC3)c2c2ccccc12`, the TGI is reported as > 100 µM.
`Cc1ccc(S(=O)C(C)C(Cl)c2ccccc2)cc1` (stereo not drawn) was tested, and the TGI was > 100 µM.
`CN1CCc2ccccc2C(C(=O)c2ccc3c(c2)OCO3)C1=O` (stereo not drawn) was tested, and the TGI was > 100 µM.
In the case of `Cc1cc(Cl)ccc1NC(=O)C1C(=O)N(c2ccc(Cl)cc2C)C(=O)/C1=N\NC(N)=S` (stereo not drawn), the TGI is reported as 98.7 µM.
With `COc1ccccc1C(=O)N(Cc1ccccc1)c1ccc(Cl)c(C(=O)OC(C)C)c1` the TGI was 56 µM.
`COc1ccc(Br)c(C(=O)N2CCc3ccccc32)c1N` gave a TGI of 79.4 µM.
With `Cc1ccc2ccc(-c3ccccc3)c3c2c1C(=O)c1ccccc1C3=O` the TGI was > 100 µM.
`OCC(O)C(O)C(O)c1nn(-c2ccc(F)cc2)c2nc3cc(Cl)c(Cl)cc3nc12` (stereo not drawn) gave a TGI of 71.4 µM.
In the case of `NCCCN=c1ccc2c3c1c(O)c1c(O)ccc(=O)c1c3[nH]n2CCNCCO`, the TGI is reported as > 250 µM.
For `COc1ccc(C2Cc3cc(OC)c(OC)c(OC)c3C2)cc1` (stereo not drawn), the TGI was > 100 µM.

The molecules below were run on MDA-N (assay: NCI tumour cell line growth inhibition, 48 h).
For `Clc1ccc(CN2CCCN(Cc3ccc(Cl)cc3)C2c2cc3ccccc3c3ccccc23)cc1`, the TGI was > 100 µM.
In the case of `COc1cc(N(C)C)c(OC)cc1C=C1C=CC=C1`, the TGI is reported as > 100 µM.
In the case of `C=C1CC[C@H]2C(C)=CC[C@H]3C(=C)C(=O)O[C@@H]3[C@@H]12`, the TGI is reported as > 100 µM.
In the case of `O=C(O)c1ccccc1NCn1c(=S)sc2ccccc21`, the TGI is reported as > 100 µM.
`COc1cc2c3cc1Oc1c(OC)c(OC)cc4c1C(Cc1ccc(O)c(c1)Oc1ccc(cc1)CC3N(C)CC2)N(C)CC4` (stereo not drawn) gave a TGI of 60 µM.
For `COc1ccccc1NC(=O)C1=C(C)NC(C)=C(C(=O)Nc2ccccc2OC)C1c1ccco1`, the TGI was > 100 µM.
For `Cc1ccc(OC(=O)N2C/C(=C\c3ccccc3)C(=O)/C(=C/c3ccccc3)C2)cc1`, the TGI was 15.3 µM.
For `O=C(O)CCCCC1CCSS1` (stereo not drawn), the TGI was > 100 µM.
For `COc1ccccc1C(=O)N(Cc1ccccc1)c1ccc(Cl)c(C(=O)OC(C)C)c1`, the TGI was > 100 µM.
With `OCCN(CO)CO` the TGI was > 100 µM.
For `COc1ccc(C)cc1NC(=S)C#N`, the TGI was > 100 µM.
For `CCCCCC[C@H]1C(=O)O[C@H](C)[C@H](NC(=O)c2cccc(NC=O)c2OC)C(=O)O[C@@H](C)[C@@H]1OC(=O)CCC` (tested in a mixture with another compound), the GI50 was 11.1 µM and the TGI was 45.2 µM.
With `CC1OC(OC2C(O)C(O)C(O)C(O)C2O)C(N)CC1N=C(N)C(=O)O` (stereo not drawn) the TGI was > 100 µM.
In the case of `NCCCN=c1ccc2c3c1c(O)c1c(O)ccc(=O)c1c3[nH]n2CCNCCO`, the TGI is reported as 8.37 µM.

Each molecule was assayed on XF 498 CNS (assay: NCI tumour cell line growth inhibition, 48 h).
Work on `CC1(C)OC(=O)C(=C2CCC(C(=O)Nc3cccc(C(F)(F)F)c3)N2)C(=O)O1` (stereo not drawn) yielded a TGI of 89.8 µM.
With `COc1cc(OC)c2c(=O)c3cccc([N+](=O)[O-])c3n(C)c2c1` the TGI was > 100 µM.
In the case of `COc1cccc(/C=N\NC(=O)C(C)SC(C)C(=O)N/N=C/c2cccc(OC)c2)c1` (stereo not drawn), the TGI is reported as > 100 µM.
`Cc1cc(C)nc(NS(=O)(=O)c2ccc(Nc3c4ccccc4nc4c(C(=O)NCCN(C)C)cccc34)cc2)n1` gave a TGI of 26.8 µM.
For `COc1cc2c(c(OC)c1OC)C(=O)NCCC2`, the TGI was > 100 µM.
In the case of `Cc1nc2ccccc2c(=O)n1/N=C(\N=Nc1cc(Cl)ccc1Cl)c1ccccc1`, the TGI is reported as > 100 µM.
For `O=c1[nH]cnc2n[nH]nc12`, the TGI was 83.5 µM.
For `O=C(/C=C/c1ccccc1O)c1ccccc1Cl`, the TGI was > 100 µM.
In the case of `CCCCC1(C(NC(=O)c2ccccc2Cl)c2ccncc2)C(=O)N(c2ccccc2)N(c2ccccc2)C1=O` (stereo not drawn), the TGI is reported as > 100 µM.
With `COc1ccc(/C=N/NS(=O)(=O)c2ccccc2)cc1` the TGI was > 100 µM.
In the case of `COc1ccccc1NC(=O)C1=C(C)NC(C)=C(C(=O)Nc2ccccc2OC)C1c1ccco1`, the TGI is reported as > 100 µM.
For `C1=CC2CCC1CN2CCC1CNc2ccccc21` (stereo not drawn), the TGI was > 100 µM.
Work on `Cc1ccc(OC(=O)N2C/C(=C\c3ccccc3)C(=O)/C(=C/c3ccccc3)C2)cc1` yielded a TGI of 49.1 µM.
Molecule `O=c1oc2c3ccc4ccccc4c3n(CCN3CCCCC3)c2c2ccccc12` has a TGI of 42.9 µM.
`CN1CCc2ccccc2C(C(=O)c2ccc3c(c2)OCO3)C1=O` (stereo not drawn) was tested, and the TGI was > 100 µM.
`COc1ccccc1C(=O)N(Cc1ccccc1)c1ccc(Cl)c(C(=O)OC(C)C)c1` gave a TGI of 43.4 µM.
With `COc1ccc(Br)c(C(=O)N2CCc3ccccc32)c1N` the TGI was > 100 µM.
In the case of `Cc1ccc2ccc(-c3ccccc3)c3c2c1C(=O)c1ccccc1C3=O`, the TGI is reported as 99.1 µM.
In the case of `OCC(O)C(O)C(O)c1nn(-c2ccc(F)cc2)c2nc3cc(Cl)c(Cl)cc3nc12` (stereo not drawn), the TGI is reported as 24.6 µM.
In the case of `NCCCN=c1ccc2c3c1c(O)c1c(O)ccc(=O)c1c3[nH]n2CCNCCO`, the TGI is reported as 6.05 µM.
`COc1ccc(C2Cc3cc(OC)c(OC)c(OC)c3C2)cc1` (stereo not drawn) showed a TGI of 54.5 µM.

Each molecule was assayed on LXFL 529 NSCLC (assay: NCI tumour cell line growth inhibition, 48 h).
In the case of `CC1(C)OC(=O)C(=C2CCC(C(=O)Nc3cccc(C(F)(F)F)c3)N2)C(=O)O1` (stereo not drawn), the TGI is reported as > 100 µM.
For `CCN(c1ccccc1)[C@H]1C(=O)N(c2ccc([N+](=O)[O-])cc2)[C@H]1c1ccc(OC)cc1`, the TGI was > 100 µM.
For `COc1ccc(/C=C\c2cc(OC)c(OC)c(OC)c2)cc1`, the TGI was > 100 µM.
`C[C@H]1CC[P+](C)(c2ccccc2)C1` (stereo partly drawn) was tested, and the TGI was > 100 µM.
In the case of `COc1cc(OC)c2c(=O)c3cccc([N+](=O)[O-])c3n(C)c2c1`, the TGI is reported as > 100 µM.
`COc1cccc(/C=N\NC(=O)C(C)SC(C)C(=O)N/N=C/c2cccc(OC)c2)c1` (stereo not drawn) was tested, and the TGI was > 100 µM.
Molecule `Cc1cc(C)nc(NS(=O)(=O)c2ccc(Nc3c4ccccc4nc4c(C(=O)NCCN(C)C)cccc34)cc2)n1` has a TGI of 20 µM.
In the case of `COc1cc2c(c(OC)c1OC)C(=O)NCCC2`, the TGI is reported as > 100 µM.
With `Cc1nc2ccccc2c(=O)n1/N=C(\N=Nc1cc(Cl)ccc1Cl)c1ccccc1` the TGI was > 100 µM.
With `O=c1[nH]cnc2n[nH]nc12` the TGI was > 100 µM.
In the case of `O=C(/C=C/c1ccccc1O)c1ccccc1Cl`, the TGI is reported as > 100 µM.
For `CCCCC1(C(NC(=O)c2ccccc2Cl)c2ccncc2)C(=O)N(c2ccccc2)N(c2ccccc2)C1=O` (stereo not drawn), the TGI was > 100 µM.
In the case of `COc1ccc(/C=N/NS(=O)(=O)c2ccccc2)cc1`, the TGI is reported as > 100 µM.
